Reference: ChEMBL document CHEMBL5120927, “LEGO-Lipophosphonoxins: A Novel Approach in Designing Membrane Targeting Antimicrobials” (J Med Chem, 2022)
Calls of active or inactive are those of the source.

Experiments:
Pseudomonas aeruginosa [1] = test: Antibacterial activity against Pseudomonas aeruginosa assessed as reduction in microbial growth measured after 20 cycles by microdilution assay; assay type: functional; conditions: Pseudomonas aeruginosa; time 24 hrs
Staphylococcus aureus [2] = test: Antibacterial activity against wild type Staphylococcus aureus 4738/B assessed as reduction in microbial growth incubated for 24 hrs by microdilution assay; assay type: functional
Staphylococcus aureus [3] = test: Antibacterial activity against wild type Staphylococcus aureus 4904/C assessed as reduction in microbial growth incubated for 24 hrs by microdilution assay; assay type: functional
Cell membrane [4] = test: Induction of cell envelope damage in Staphylococcus aureus assessed as tubular structure at 8 mg/L measured after 8 hrs by scanning electron microscope analysis
Staphylococcus aureus [5] = test: Antibacterial activity against wild type Staphylococcus aureus 4557/A assessed as reduction in microbial growth incubated for 24 hrs by microdilution assay; assay type: functional
Escherichia coli [6] = test: Antibacterial activity against multidrug-resistant Escherichia coli CE5556 expressing CTX-M-15 assessed as reduction in microbial growth incubated for 24 hrs by microdilution assay; assay type: functional
[7] = Toxicity in human cornea epidermis model assessed as eye irritation incubated for 42 hrs; assay type: tissue-based
Staphylococcus aureus [8] = test: Antibacterial activity against methicillin resistant Staphylococcus aureus 4591/A assessed as reduction in microbial growth incubated for 24 hrs by microdilution assay; assay type: functional
Staphylococcus aureus [9] = test: Antibacterial activity against wild type Staphylococcus aureus 4502/A assessed as reduction in microbial growth incubated for 24 hrs by microdilution assay; assay type: functional
Staphylococcus aureus [10] = test: Antibacterial activity against wild type Staphylococcus aureus 4740/B assessed as reduction in microbial growth incubated for 24 hrs by microdilution assay; assay type: functional
Staphylococcus aureus [11] = test: microbe, parasite or virus in culture; conditions: 4880/C, 24 h
Description: Antibacterial activity against wild type Staphylococcus aureus 4880/C assessed as reduction in microbial growth incubated for 24 hrs by microdilution assay

Staphylococcus aureus [12] = test: Antibacterial activity against Staphylococcus aureus ATCC 29213 = CCM 4223 assessed as inhibition of bacterial growth incubated for 24 hrs by microdilution assay; assay type: functional
Staphylococcus aureus [13] = test: Antibacterial activity against wild type Staphylococcus aureus 4717/B assessed as reduction in microbial growth incubated for 24 hrs by microdilution assay; assay type: functional
[14] = Toxicity in rabbit assessed as skin irritation at 100 to 200 mg/L after administration bandaged for 4 hrs and measured after 1 to 72 hrs of contact time; parameters: species or system Oryctolagus cuniculus; conditions: in vivo, topical_or_ocular, dose lower 100 mg/L, time lower 1 hrs, dose upper 200 mg/L, time upper 76 hrs
[15] = Hemolytic activity in human RBC assessed as haemoglobin release measured after 3 hr; assay type: toxicity, cell-based, Erythrocyte; conditions: red blood cells (erythrocytes)
Staphylococcus aureus [16] = test: Antibacterial activity against wild type Staphylococcus aureus 4788/B assessed as reduction in microbial growth incubated for 24 hrs by microdilution assay; assay type: functional
[17] = Gradient chromatographic hydrophobicity index of the compound at pH 3.7 by HPLC analysis; assay type: ADME
Staphylococcus aureus [18] = test: Antibacterial activity against wild type Staphylococcus aureus 4504/A assessed as reduction in microbial growth incubated for 24 hrs by microdilution assay; assay type: functional
Staphylococcus aureus [19] = test: Antibacterial activity against wild type Staphylococcus aureus 78/CF assessed as reduction in microbial growth incubated for 24 hrs by microdilution assay; assay type: functional
Staphylococcus aureus [20] = test: Antibacterial activity against wild type Staphylococcus aureus 5079/C assessed as reduction in microbial growth incubated for 24 hrs by microdilution assay; assay type: functional
Enterococcus faecalis = test: Antibacterial activity against Enterococcus faecalis ATCC 29212 = CCM 4224 assessed as inhibition of bacterial growth incubated for 24 hrs by microdilution assay; assay type: functional
Cell membrane [21] = test: Induction of cell envelope damage in Staphylococcus aureus assessed as loss of cytoplasmic content at 8 mg/L measured after 8 hrs by scanning electron microscope analysis; assay type: subcellular
Staphylococcus aureus [22] = test: microbe, parasite or virus in culture; conditions: 5017/C, 24 h
Description: Antibacterial activity against wild type Staphylococcus aureus 5017/C assessed as reduction in microbial growth incubated for 24 hrs by microdilution assay

Staphylococcus aureus [23] = test: Bactericidal activity against Staphylococcus aureus CCM 4223 assessed as reduction in viable cell count measured after 24 hrs by Time kill assay; assay type: functional, organism-based; conditions: DDE = dose-dependent effect
[24] = Toxicity in human epidermis model assessed as skin irritation incubated for 42 hrs; assay type: tissue-based
Staphylococcus aureus [25] = test: Antibacterial activity against Staphylococcus aureus ATCC 29213 = CCM 4223 assessed as inhibition of bacterial growth incubated for 24 hrs in presence of BSA by microdilution assay; assay type: functional
Staphylococcus aureus [26] = test: Antibacterial activity against wild type Staphylococcus aureus 4482/A assessed as reduction in microbial growth incubated for 24 hrs by microdilution assay; assay type: functional
Staphylococcus aureus [27] = test: Antibacterial activity against […] Staphylococcus aureus 4460/A assessed as reduction in microbial growth incubated for 24 hrs by microdilution assay; assay type: functional
[28] = Toxicity in rabbit assessed as eye irritation at 100 mg/L measured at 1 to 168 hrs; parameters: species or system Oryctolagus cuniculus; conditions: in vivo, topical_or_ocular, time 1-168 hrs
Escherichia coli [29] = test: Bactericidal activity against Escherichia coli CCM 3954 assessed as reduction in viable cell count measured after 24 hrs by Time kill assay; assay type: functional, organism-based; conditions: dose 2-8 mg/L, DDE = dose-dependent effect
Pseudomonas aeruginosa [30] = test: Antibacterial activity against multidrug-resistant Pseudomonas aeruginosa assessed as reduction in microbial growth incubated for 24 hrs by microdilution assay; assay type: functional
Escherichia coli [31] = test: Antibacterial activity against Escherichia coli ATCC 25922 = CCM 3954 assessed as inhibition of bacterial growth incubated for 24 hrs by microdilution assay; assay type: functional
Staphylococcus aureus [32] = test: Antibacterial activity against wild type Staphylococcus aureus 4561/A assessed as reduction in microbial growth incubated for 24 hrs by microdilution assay; assay type: functional
Staphylococcus aureus [33] = test: Antibacterial activity against […] Staphylococcus aureus 4463/A assessed as reduction in microbial growth incubated for 24 hrs by microdilution assay; assay type: functional
[34] = Toxicity in rabbit assessed as maximum tolerated dose administered orally; parameters: species or system Oryctolagus cuniculus; conditions: in vivo, route po
Pseudomonas aeruginosa [35] = test: Antibacterial activity against Pseudomonas aeruginosa ATCC 27853 = CCM 3955 assessed as inhibition of bacterial growth incubated for 24 hrs by microdilution assay; assay type: functional
Staphylococcus aureus [36] = test: Antibacterial activity against wild type Staphylococcus aureus 4566/A assessed as reduction in microbial growth incubated for 24 hrs by microdilution assay; assay type: functional
[37] = Toxicity in human cornea epidermis model assessed as tissue viability pretreated for 1 hr and measured after 42 hrs by MTT assay relative to control; assay type: tissue-based; conditions: read-out: Activity
Enterococcus faecium = test: Antibacterial activity against vancomycin resistant Enterococcus faecium 419/ANA assessed as reduction in microbial growth incubated for 24 hrs by microdilution assay; assay type: functional
Staphylococcus aureus [38] = test: Antibacterial activity against wild type Staphylococcus aureus 77/CF assessed as reduction in microbial growth incubated for 24 hrs by microdilution assay; assay type: functional
Cell membrane [39] = test: Induction of cell envelope damage in Staphylococcus aureus assessed as membranous nanotubes extrude from dying/dead cells at 8 mg/L measured after 8 hrs by scanning electron microscope analysis
Staphylococcus aureus [40] = test: Antibacterial activity against […] Staphylococcus aureus 4461/A assessed as reduction in microbial growth incubated for 24 hrs by microdilution assay; assay type: functional
Staphylococcus aureus [41] = test: Antibacterial activity against wild type Staphylococcus aureus 4679/B assessed as reduction in microbial growth incubated for 24 hrs by microdilution assay; assay type: functional
[42] = Cytotoxicity against human HepG2 cells assessed as reduction in cell viability; assay type: toxicity, cell-based
Staphylococcus aureus [43] = test: Antibacterial activity against wild type Staphylococcus aureus 4883/C assessed as reduction in microbial growth incubated for 24 hrs by microdilution assay; assay type: functional
Cell membrane [44] = test: Induction of cell envelope damage in Staphylococcus aureus assessed as loss of cell integrity at 8 mg/L measured after 8 hrs by scanning electron microscope analysis; assay type: subcellular
Staphylococcus aureus [45] = test: Antibacterial activity against wild type Staphylococcus aureus 4968/C assessed as reduction in microbial growth incubated for 24 hrs by microdilution assay; assay type: functional
Staphylococcus aureus [46] = test: microbe, parasite or virus in culture; conditions: 4862/C, 24 h
Description: Antibacterial activity against wild type Staphylococcus aureus 4862/C assessed as reduction in microbial growth incubated for 24 hrs by microdilution assay

[47] = test system: Staphylococcus epidermidis; test: Antibacterial activity against Staphylococcus epidermidis CCM 7221 assessed as inhibition of bacterial growth incubated for 24 hrs by microdilution assay; assay type: functional
Staphylococcus aureus [48] = test: Antibacterial activity against wild type Staphylococcus aureus 4515/A assessed as reduction in microbial growth incubated for 24 hrs by microdilution assay; assay type: functional
[49] = Toxicity in rabbit assessed as maximum tolerated dose administered subcutaneously; parameters: species or system Oryctolagus cuniculus; conditions: in vivo, route sc
Escherichia coli [50] = test: Antibacterial activity against Escherichia coli ATCC 25922 = CCM 3954 assessed as inhibition of bacterial growth incubated for 24 hrs in presence of BSA by microdilution assay; assay type: functional

CC(C)(O/N=C(\C(=O)N[C@@H]1C(=O)N2C(C(=O)[O-])=C(C[n+]3ccccc3)CS[C@H]12)c1csc(N)n1)C(=O)O [CEFTAZIDIME]
128 µg/mL: MIC (Pseudomonas aeruginosa [1])

CCCCCCCCOP(=O)(CCN(CCCN)CCCN)OCCCCOP(=O)(CCN(CCCN)CCCN)OCCCCCCCC.Cl.Cl.Cl.Cl.Cl.Cl (configuration not stated)
Non-Toxic: Activity [7] | Activity [14] | Activity [24] | Activity [28]
263 µg/mL: HC50 at 3 h [15]
64 µg/mL: MIC (Enterococcus faecium)
2 µg/mL: MIC (Escherichia coli [6]) | MIC (Staphylococcus aureus [8]) | MIC (Staphylococcus aureus [9]) | MIC (Staphylococcus aureus [12]) | MIC (Staphylococcus aureus [18]) | MIC (Staphylococcus aureus [19]) | MIC (Staphylococcus aureus [25]) | MIC (Escherichia coli [31]) | MIC (Staphylococcus aureus [32]) | MIC (Staphylococcus aureus [33]) | MIC (Staphylococcus aureus [38]) | MIC (Staphylococcus aureus [40]) | MIC (Staphylococcus aureus [41]) | MIC (Staphylococcus aureus [45])
> 15 mg/kg: MTD [49]
> 60%: viability at 42 h [37]
95.9 µM: CC50 [42]
4 µg/mL: MIC (Enterococcus faecalis) | MIC (Pseudomonas aeruginosa [30]) | MIC (Pseudomonas aeruginosa [35])
active: Activity (Cell membrane [4]) | Activity (Cell membrane [21]) | Activity (Staphylococcus aureus [23]) Dde | Activity (Escherichia coli [29]) Dde | Activity (Cell membrane [39]) | Activity (Cell membrane [44])
> 200 mg/kg: MTD [34]
35.3: CHI [17]
1 µg/mL: MIC (Staphylococcus aureus [2]) | MIC (Staphylococcus aureus [3]) | MIC (Staphylococcus aureus [5]) | MIC (Staphylococcus aureus [10]) | MIC (Staphylococcus aureus [11]) | MIC (Staphylococcus aureus [13]) | MIC (Staphylococcus aureus [16]) | MIC (Staphylococcus aureus [20]) | MIC (Staphylococcus aureus [22]) | MIC (Staphylococcus aureus [26]) | MIC (Staphylococcus aureus [27]) | MIC (Staphylococcus aureus [36]) | MIC (Staphylococcus aureus [43]) | MIC (Staphylococcus aureus [46]) | MIC [47] | MIC (Staphylococcus aureus [48]) | MIC (Escherichia coli [50])
